# Experimental data reported in PubChem BioAssay AID1918936 (Molecular Pharmacology Branch, DTP, NCI, 2023).
# System: 349418-098-R-PDC complex spheroid viability
# Test: Anticancer human tumor 349418-098-R-PDC patient-derived lung adenocarcinoma cell line growth inhibition
# Details: for IC50: curve of first compound; for viability, T/C: stronger effect = lower value
# Method in brief: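 Drug combinations with the LSD1 inhibitor iadademstat tested on tumor cells co-cultured as spheroids with endothelial cells and mesenchymal stem cells. Concentrations descended in half-log increments from clinical Cmax or 10 microM.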
# [1] = second compound 0.1 µM, first compound 0.000316 µM
# [2] = second compound 0.1 µM, first compound 0.001 µM
# [3] = second compound 0.1 µM, first compound 0.00316 µM
# [4] = second compound 0.1 µM, first compound 0.01 µM
# [5] = second compound 0.1 µM, first compound 0.0316 µM
# [6] = second compound 0.1 µM, first compound 0.1 µM
# [7] = second compound 0.316 µM, first compound 0.000316 µM
# [8] = second compound 0.316 µM, first compound 0.001 µM
# [9] = second compound 0.316 µM, first compound 0.00316 µM
# [10] = second compound 0.316 µM, first compound 0.01 µM
# [11] = second compound 0.316 µM, first compound 0.0316 µM
# [12] = second compound 0.316 µM, first compound 0.1 µM
# [13] = second compound 1 µM, first compound 0.000316 µM
# [14] = second compound 1 µM, first compound 0.001 µM
# [15] = second compound 1 µM, first compound 0.00316 µM
# [16] = second compound 1 µM, first compound 0.01 µM
# [17] = second compound 1 µM, first compound 0.0316 µM
# [18] = second compound 1 µM, first compound 0.1 µM
# [19] = second compound 3.16 µM, first compound 0.000316 µM
# [20] = second compound 3.16 µM, first compound 0.001 µM
# [21] = second compound 3.16 µM, first compound 0.00316 µM
# [22] = second compound 3.16 µM, first compound 0.01 µM
# [23] = second compound 3.16 µM, first compound 0.0316 µM
# [24] = second compound 3.16 µM, first compound 0.1 µM
# [25] = second compound 10 µM, first compound 0.000316 µM
# [26] = second compound 10 µM, first compound 0.001 µM
# [27] = second compound 10 µM, first compound 0.00316 µM
# [28] = second compound 10 µM, first compound 0.01 µM
# [29] = second compound 10 µM, first compound 0.0316 µM
# [30] = second compound 10 µM, first compound 0.1 µM
# [31] = second compound 0.1 µM, first compound 0.00949 µM
# [32] = second compound 0.1 µM, first compound 0.03 µM
# [33] = second compound 0.1 µM, first compound 0.0949 µM
# [34] = second compound 0.1 µM, first compound 0.3 µM
# [35] = second compound 0.1 µM, first compound 0.949 µM
# [36] = second compound 0.1 µM, first compound 3 µM
# [37] = second compound 0.316 µM, first compound 0.00949 µM
# [38] = second compound 0.316 µM, first compound 0.03 µM
# [39] = second compound 0.316 µM, first compound 0.0949 µM
# [40] = second compound 0.316 µM, first compound 0.3 µM
# [41] = second compound 0.316 µM, first compound 0.949 µM
# [42] = second compound 0.316 µM, first compound 3 µM
# [43] = second compound 1 µM, first compound 0.00949 µM
# [44] = second compound 1 µM, first compound 0.03 µM
# [45] = second compound 1 µM, first compound 0.0949 µM
# [46] = second compound 1 µM, first compound 0.3 µM
# [47] = second compound 1 µM, first compound 0.949 µM
# [48] = second compound 1 µM, first compound 3 µM
# [49] = second compound 3.16 µM, first compound 0.00949 µM
# [50] = second compound 3.16 µM, first compound 0.03 µM
# [51] = second compound 3.16 µM, first compound 0.0949 µM
# [52] = second compound 3.16 µM, first compound 0.3 µM
# [53] = second compound 3.16 µM, first compound 0.949 µM
# [54] = second compound 3.16 µM, first compound 3 µM
# [55] = second compound 10 µM, first compound 0.00949 µM
# [56] = second compound 10 µM, first compound 0.03 µM
# [57] = second compound 10 µM, first compound 0.0949 µM
# [58] = second compound 10 µM, first compound 0.3 µM
# [59] = second compound 10 µM, first compound 0.949 µM
# [60] = second compound 10 µM, first compound 3 µM
# 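Also: spheroids exposed to agents for seven days before readout.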
# 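For viability, T/C in this document: 100% = DMSO vehicle control wells.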
structure (smiles),measurement,setting,value
CC(C)CC(NC(=O)CNC(=O)c1cc(Cl)ccc1Cl)B1OC(=O)CC(CC(=O)O)(C(=O)O)O1 (stereo not given) + NC1CCC(NC2CC2c2ccccc2)CC1,IC50,second compound 0.1 µM,0.62 nM
same,IC50,second compound 0.316 µM,0.661 nM
same,IC50,second compound 1 µM,0.681 nM
same,IC50,second compound 3.16 µM,0.596 nM
same,IC50,second compound 10 µM,0.606 nM
same,"viability, T/C",[1],89.2%
same,"viability, T/C",[2],22%
same,"viability, T/C",[3],4.81%
same,"viability, T/C",[4],1.88%
same,"viability, T/C",[5],1.17%
same,"viability, T/C",[6],1.44%
same,"viability, T/C",[7],97.2%
same,"viability, T/C",[8],23.5%
same,"viability, T/C",[9],4.46%
same,"viability, T/C",[10],1.83%
same,"viability, T/C",[11],1.73%
same,"viability, T/C",[12],1.09%
same,"viability, T/C",[13],96.5%
same,"viability, T/C",[14],26.8%
same,"viability, T/C",[15],4.37%
same,"viability, T/C",[16],1.55%
same,"viability, T/C",[17],1.3%
same,"viability, T/C",[18],0.81%
same,"viability, T/C",[19],82.2%
same,"viability, T/C",[20],23.4%
same,"viability, T/C",[21],4.76%
same,"viability, T/C",[22],1.66%
same,"viability, T/C",[23],1.29%
same,"viability, T/C",[24],0.98%
same,"viability, T/C",[25],90.5%
same,"viability, T/C",[26],18.7%
same,"viability, T/C",[27],4.32%
same,"viability, T/C",[28],1.66%
same,"viability, T/C",[29],1.03%
same,"viability, T/C",[30],0.65%
COc1cc(Nc2ncc3c(n2)-c2ccc(Cl)cc2C(c2c(F)cccc2OC)=NC3)ccc1C(=O)O + NC1CCC(NC2CC2c2ccccc2)CC1,IC50,second compound 0.1 µM,21.2 nM
same,IC50,second compound 0.316 µM,18.1 nM
same,IC50,second compound 1 µM,28 nM
same,IC50,second compound 3.16 µM,15.8 nM
same,IC50,second compound 10 µM,21.2 nM
same,"viability, T/C",[3],99.2%
same,"viability, T/C",[4],64.7%
same,"viability, T/C",[5],41.8%
same,"viability, T/C",[6],38.5%
same,"viability, T/C","second compound 0.1 µM, first compound 0.316 µM",32.1%
same,"viability, T/C","second compound 0.1 µM, first compound 1 µM",37.4%
same,"viability, T/C",[9],87.3%
same,"viability, T/C",[10],63.1%
same,"viability, T/C",[11],37.7%
same,"viability, T/C",[12],38.9%
same,"viability, T/C","second compound 0.316 µM, first compound 0.316 µM",39.7%
same,"viability, T/C","second compound 0.316 µM, first compound 1 µM",32.5%
same,"viability, T/C",[15],85%
same,"viability, T/C",[16],62.8%
same,"viability, T/C",[17],43.6%
same,"viability, T/C",[18],47.3%
same,"viability, T/C","second compound 1 µM, first compound 0.316 µM",40.9%
same,"viability, T/C","second compound 1 µM, first compound 1 µM",34.5%
same,"viability, T/C",[21],99.5%
same,"viability, T/C",[22],58.9%
same,"viability, T/C",[23],35.6%
same,"viability, T/C",[24],40.4%
same,"viability, T/C","second compound 3.16 µM, first compound 0.316 µM",31.9%
same,"viability, T/C","second compound 3.16 µM, first compound 1 µM",37.7%
same,"viability, T/C",[27],75.3%
same,"viability, T/C",[28],54.2%
same,"viability, T/C",[29],48.2%
same,"viability, T/C",[30],41.6%
same,"viability, T/C","second compound 10 µM, first compound 0.316 µM",34%
same,"viability, T/C","second compound 10 µM, first compound 1 µM",34.7%
Cn1ncnc1C1c2n[nH]c(=O)c3cc(F)cc(c23)NC1c1ccc(F)cc1 (stereo not given) + NC1CCC(NC2CC2c2ccccc2)CC1,IC50,second compound 0.1 µM,> 100 nM
same,IC50,second compound 0.316 µM,> 100 nM
same,IC50,second compound 1 µM,> 100 nM
same,IC50,second compound 3.16 µM,> 100 nM
same,IC50,second compound 10 µM,> 100 nM
same,"viability, T/C",[1],101%
same,"viability, T/C",[2],96%
same,"viability, T/C",[3],94.8%
same,"viability, T/C",[4],95.3%
same,"viability, T/C",[5],106%
same,"viability, T/C",[6],92.5%
same,"viability, T/C",[7],108%
same,"viability, T/C",[8],110%
same,"viability, T/C",[9],116%
same,"viability, T/C",[10],92.2%
same,"viability, T/C",[11],97.6%
same,"viability, T/C",[12],99.5%
same,"viability, T/C",[13],115%
same,"viability, T/C",[14],112%
same,"viability, T/C",[15],96.8%
same,"viability, T/C",[16],112%
same,"viability, T/C",[17],111%
same,"viability, T/C",[18],87%
same,"viability, T/C",[19],107%
same,"viability, T/C",[20],101%
same,"viability, T/C",[21],99.4%
same,"viability, T/C",[22],98.9%
same,"viability, T/C",[23],89.7%
same,"viability, T/C",[24],85.9%
same,"viability, T/C",[25],94.5%
same,"viability, T/C",[26],91.2%
same,"viability, T/C",[27],94.6%
same,"viability, T/C",[28],86.8%
same,"viability, T/C",[29],83.7%
same,"viability, T/C",[30],87.3%
NS(=O)(=O)OCC1CC(n2ccc3c(NC4CCc5ccccc54)ncnc32)CC1O (stereo not given) + NC1CCC(NC2CC2c2ccccc2)CC1,IC50,second compound 0.1 µM,67.2 nM
same,IC50,second compound 0.316 µM,86.6 nM
same,IC50,second compound 1 µM,93 nM
same,IC50,second compound 3.16 µM,82.3 nM
same,IC50,second compound 10 µM,66.6 nM
same,"viability, T/C",[31],99.3%
same,"viability, T/C",[32],94.8%
same,"viability, T/C",[33],30.6%
same,"viability, T/C",[34],15.2%
same,"viability, T/C",[35],8.16%
same,"viability, T/C",[36],4.47%
same,"viability, T/C",[37],118%
same,"viability, T/C",[38],100%
same,"viability, T/C",[39],44.5%
same,"viability, T/C",[40],16.1%
same,"viability, T/C",[41],7.56%
same,"viability, T/C",[42],4.71%
same,"viability, T/C",[43],111%
same,"viability, T/C",[44],104%
same,"viability, T/C",[45],47.1%
same,"viability, T/C",[46],17.1%
same,"viability, T/C",[47],6.19%
same,"viability, T/C",[48],4.32%
same,"viability, T/C",[49],108%
same,"viability, T/C",[50],103%
same,"viability, T/C",[51],40.6%
same,"viability, T/C",[52],22.6%
same,"viability, T/C",[53],7.16%
same,"viability, T/C",[54],4.58%
same,"viability, T/C",[55],84.9%
same,"viability, T/C",[56],88.7%
same,"viability, T/C",[57],33.6%
same,"viability, T/C",[58],16.6%
same,"viability, T/C",[59],6.64%
same,"viability, T/C",[60],4.12%
O=C(C=Cc1cccc(S(=O)(=O)Nc2ccccc2)c1)NO + NC1CCC(NC2CC2c2ccccc2)CC1,IC50,second compound 0.1 µM,88.1 nM
same,IC50,second compound 0.316 µM,94.5 nM
same,IC50,second compound 1 µM,121 nM
same,IC50,second compound 3.16 µM,112 nM
same,IC50,second compound 10 µM,83.7 nM
same,"viability, T/C",[31],100%
same,"viability, T/C",[32],80.5%
same,"viability, T/C",[33],48.6%
same,"viability, T/C",[34],18.1%
same,"viability, T/C",[35],4.19%
same,"viability, T/C",[36],1.29%
same,"viability, T/C",[37],105%
same,"viability, T/C",[38],80.4%
same,"viability, T/C",[39],53.1%
same,"viability, T/C",[40],18.7%
same,"viability, T/C",[41],3.88%
same,"viability, T/C",[42],1.5%
same,"viability, T/C",[43],97.1%
same,"viability, T/C",[44],85.2%
same,"viability, T/C",[45],58.5%
same,"viability, T/C",[46],20.8%
same,"viability, T/C",[47],3.93%
same,"viability, T/C",[48],1.07%
same,"viability, T/C",[49],102%
same,"viability, T/C",[50],88.3%
same,"viability, T/C",[51],56.5%
same,"viability, T/C",[52],17%
same,"viability, T/C",[53],3.94%
same,"viability, T/C",[54],0.93%
same,"viability, T/C",[55],96.4%
same,"viability, T/C",[56],87.3%
same,"viability, T/C",[57],44.3%
same,"viability, T/C",[58],13.2%
same,"viability, T/C",[59],3.61%
same,"viability, T/C",[60],0.5%
